Reference: US7589239B2, “Therapeutic agents for the treatment of cancer, metabolic diseases and skin disorders” (Auspex Pharmaceuticals, priority 2005, dated 2009)

Biological target: T1, human RAR-β (Homo sapiens, UniProt P10826)
T1 sequence (P10826 1-455): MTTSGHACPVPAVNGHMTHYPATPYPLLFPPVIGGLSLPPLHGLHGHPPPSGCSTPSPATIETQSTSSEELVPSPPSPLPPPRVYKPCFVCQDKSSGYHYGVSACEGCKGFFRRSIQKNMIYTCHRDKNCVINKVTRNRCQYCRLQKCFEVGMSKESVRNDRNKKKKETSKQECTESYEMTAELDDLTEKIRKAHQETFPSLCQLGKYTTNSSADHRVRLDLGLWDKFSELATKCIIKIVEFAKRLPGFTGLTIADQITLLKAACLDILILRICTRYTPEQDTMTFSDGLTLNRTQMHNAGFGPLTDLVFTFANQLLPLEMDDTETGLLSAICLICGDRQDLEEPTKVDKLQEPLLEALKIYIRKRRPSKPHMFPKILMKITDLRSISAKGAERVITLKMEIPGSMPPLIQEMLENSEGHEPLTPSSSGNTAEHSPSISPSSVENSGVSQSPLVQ
Assay: Co-transfection assay (luciferase reporter induction in transfected COS-7 cells)
Experimental: The following assay is a measure of the in-vitro binding affinity of the given compound with human RAR-β in COS-7 cells. Binding of the compound to RAR-β will induce transcription of luciferase within the cells. This level of transcription can be quantified based on the amount of luminescence emitted after incubation of the cell lysate with luciferin.
COS-7 cells were cultured in Dulbecco Modified Eagle's Medium (DMEM) with 4 mM L-glutamine, 4.5 g/L glucose 1.5 g/L sodium bicarbonate and supplemented with 10% fetal bovine serum. Cells were transfected using the calcium phosphate:DNA co-precipitation method. A 10-cm plate of cells was transfected with 5 μg of luciferase reporter construct, 5 μg of expression vector for β-galactosidase, 1 μg of expression vector for RAR-β, and pUC19 as carrier, to a total of 20 μg.
β-galactosidase (5 μg) was included in each transfection to monitor transfection efficiency. Cells were incubated 6 hours at 37° C. in a CO2 incubator. The cells were re-suspended in fresh media containing 10% serum (96-well plate, 15000 cells per well) with or without compound (in 0.5% DMSO) and the plates were incubated at 37° C. in a CO2 incubator. Lysis buffer (1×) was added to cover the cells and the plates were incubated at ambient temperature for 15 min. Luciferase and β-galactosidase assays were performed 36 hours post-transfection, and the normalized luciferase response was determined as relative light units divided by β-galactosidase activity. Composition of 5× lysis buffer is 125 mM. Tris (pH 7.8) with H3PO4 10 mM trans-1,2 diaminocyclohexane-N,N,N′,N′-tetraaceticacid (CDTA), 10 mM dithiothereitol (DTT), 50% glycerol, 5% triton X-100.

Row | SMILES | fold induction at 0.001 µM | fold induction at 0.03 µM | fold induction at 0.1 µM | fold induction at 3 µM | fold induction at 40 µM | fold induction at 10 µM
1 | CC1=C(/C=C/C(C)=C/C=C/C(C)=C/C(=O)O)C(C)(C)CCC1 [ATRA, all-trans-retinoic acid, reference compound] | 9.3 | 13.7 | 19.1 |  |  | 
2 | COc1ccc(-c2ccc3cc(B4OC(C)(C)C(C)(C)O4)ccc3c2)cc1C12CC3CC(CC(C3)C1)C2 [Example 9, 2-[6-(3-(1-Adamandyl)-4-methoxyphenyl)-naphthalen-2-yl]-4,4,5,5-tetramethyl[1,3,2]dioxaborolane] |  |  |  | 2 | 6 | 
3 | COc1ccc(-c2ccc3cc(B(O)O)ccc3c2)cc1C12CC3CC(CC(C3)C1)C2 [Example 10, 6-[-3-(1-Adamandyl)-4-methoxyphenyl)-2-naphthoboronic acid] |  |  |  | 2.1 |  | 3.6
